Assay results taken from ChEMBL document CHEMBL2150959, “Histamine H3 receptor as a drug discovery target” (J Med Chem, 2011).
Values belong to the compound of their own block, whether it stands above or below them.

How the values were obtained:
Histamine H3 receptor [1] = molecular target: T1, Histamine H3 receptor (Homo sapiens, UniProt Q9Y5N1); experiment: Binding affinity to human histamine H3 receptor
[2] = Half life in human plasma; format: ADME, cell-free
Histamine H3 receptor [3] = molecular target: Histamine H3 receptor (Rattus norvegicus, UniProt Q9QYN8); experiment: Binding affinity to rat cortical histamine H3 receptor
Histamine H3 receptor (Rattus norvegicus, UniProt Q9QYN8), sequence (Q9QYN8 whole entry): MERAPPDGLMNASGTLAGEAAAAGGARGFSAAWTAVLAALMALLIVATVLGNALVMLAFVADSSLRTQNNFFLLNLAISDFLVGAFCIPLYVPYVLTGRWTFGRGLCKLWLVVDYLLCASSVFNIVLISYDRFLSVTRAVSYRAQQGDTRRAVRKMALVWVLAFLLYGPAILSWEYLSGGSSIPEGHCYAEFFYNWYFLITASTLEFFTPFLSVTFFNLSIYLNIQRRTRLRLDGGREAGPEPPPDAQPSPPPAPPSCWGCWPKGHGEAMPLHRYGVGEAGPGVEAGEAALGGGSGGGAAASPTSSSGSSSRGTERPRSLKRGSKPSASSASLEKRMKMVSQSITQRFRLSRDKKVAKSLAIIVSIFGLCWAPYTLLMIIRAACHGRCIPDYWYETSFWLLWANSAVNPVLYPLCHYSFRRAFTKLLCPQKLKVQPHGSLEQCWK

[4] = Half life in rat; format: ADME, organism-based; settings: in vivo
[5] = Volume of distribution in rat; format: ADME, organism-based; settings: in vivo
Histamine H3 receptor [6] = molecular target: T1, Histamine H3 receptor; experiment: Inverse agonist activity at human histamine H3 receptor by GTPgammaS binding assay; format: functional
Rattus norvegicus [7] = experiment: Increase in histamine release in sc dosed rat prefrontal cortex; format: functional; settings: read-out: MED
Rattus norvegicus [8] = experiment: Increase in acetyl choline release in sc dosed rat prefrontal cortex; format: functional; settings: read-out: MED
Rattus norvegicus [9] = experiment: Efficacy in sc dosed novel object recognition 24 hrs delay rat model; format: functional; settings: read-out: MED
[10] = Oral bioavailability in rat at 1 mg/kg; format: ADME, organism-based; settings: in vivo
[11] = Half life in rat at 1 mg/kg, po; format: ADME, organism-based; parameters: dose 1 mg/kg, route oral; settings: in vivo
[12] = Oral bioavailability in dog at 1 mg/kg; format: ADME, organism-based, Canis lupus familiaris; settings: in vivo
[13] = Oral bioavailability in monkey at 1 mg/kg; format: ADME, organism-based, Macaca mulatta; settings: rhesus monkey, in vivo
Histamine H1 receptor = Histamine H1 receptor (Homo sapiens, UniProt P35367)
Histamine H1 receptor, sequence (P35367 whole entry): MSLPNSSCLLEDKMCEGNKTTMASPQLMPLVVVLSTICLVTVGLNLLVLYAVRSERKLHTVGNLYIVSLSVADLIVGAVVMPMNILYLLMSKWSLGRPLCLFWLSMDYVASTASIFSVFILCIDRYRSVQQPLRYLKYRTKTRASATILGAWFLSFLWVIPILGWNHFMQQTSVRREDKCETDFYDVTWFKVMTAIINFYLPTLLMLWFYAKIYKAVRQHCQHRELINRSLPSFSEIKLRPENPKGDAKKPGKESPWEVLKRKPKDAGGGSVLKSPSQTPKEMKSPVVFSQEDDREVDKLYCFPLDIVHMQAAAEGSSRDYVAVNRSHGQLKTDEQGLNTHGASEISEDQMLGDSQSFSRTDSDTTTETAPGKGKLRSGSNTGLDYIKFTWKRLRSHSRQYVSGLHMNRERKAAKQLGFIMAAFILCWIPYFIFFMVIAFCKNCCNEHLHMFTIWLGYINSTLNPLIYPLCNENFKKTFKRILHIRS

Cavia porcellus [14] = experiment: Antiinflammatory activity in iv dosed wheal and flare guinea pig model; format: functional; settings: read-out: ID50 (the source's name)
Cavia porcellus [15] = experiment: Antiinflammatory activity in po dosed wheal and flare guinea pig model; format: functional; settings: read-out: ID50 (the source's name)
[16] = Oral bioavailability in rat; format: ADME, organism-based; settings: in vivo
[17] = Oral bioavailability in dog; format: ADME, organism-based, Canis lupus familiaris; settings: in vivo
[18] = Half life in dog; format: ADME, organism-based, Canis lupus familiaris; settings: in vivo
[19] = Oral bioavailability in monkey; format: ADME, organism-based, Macaca mulatta; settings: rhesus monkey, in vivo
[20] = Half life in monkey; format: ADME, organism-based, Macaca mulatta; settings: rhesus monkey, in vivo
Rattus norvegicus [21] = experiment: Increase in paraventricular histamine levels in normal rat at 15 mg/kg, po; format: functional
Rhesus monkey = experiment: Reduction of food intake in rhesus monkey at 1 mg/kg; format: functional, Macaca mulatta; parameters: scale not given: the % may be the effect or the level left

T1 sequence (Q9Y5N1 whole entry): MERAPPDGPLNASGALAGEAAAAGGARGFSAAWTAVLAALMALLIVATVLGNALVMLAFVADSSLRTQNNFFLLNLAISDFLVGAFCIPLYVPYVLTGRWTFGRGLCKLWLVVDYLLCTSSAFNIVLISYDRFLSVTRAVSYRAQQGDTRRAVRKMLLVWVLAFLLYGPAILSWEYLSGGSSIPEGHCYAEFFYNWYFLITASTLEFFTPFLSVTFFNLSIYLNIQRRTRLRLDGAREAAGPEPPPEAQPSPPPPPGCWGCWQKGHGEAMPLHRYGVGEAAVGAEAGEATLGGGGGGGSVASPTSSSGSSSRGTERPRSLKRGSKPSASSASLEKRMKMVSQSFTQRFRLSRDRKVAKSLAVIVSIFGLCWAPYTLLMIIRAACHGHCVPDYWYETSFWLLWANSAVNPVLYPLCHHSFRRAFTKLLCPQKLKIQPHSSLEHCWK

Structure (SMILES): C[C@@H](N)C(=O)N1CCN(CCCOc2ccc(C(=O)C3CC3)cc2)CC1
- Ki (Histamine H3 receptor [1]; read-out: pKi (converted)): 794 nM

Structure (SMILES): N#Cc1ccc(-c2ccc(OCCCN3CCCN(C(=O)[C@@H](Cc4cscn4)NC(=O)c4ccco4)CC3)cc2)cc1
- Ki (Histamine H3 receptor [1]; read-out: pKi (converted)): 1.58 nM

Structure (SMILES): C[C@H](Cc1c[nH]cn1)/N=C(\c1ccccc1)c1ccccc1O
- half-life [2]: > 24 h

Structure (SMILES): CC(C)(C)CCC#C[C@@H]1C[C@H]1c1c[nH]cn1 [CIPRALISANT]
- Ki (Histamine H3 receptor [3]; read-out: Ki): 0.18 nM

Structure (SMILES): CC(C)N1CCCN(C(=O)C2CCN(c3ccc(C(F)(F)F)nc3)CC2)CC1
- Ki (Histamine H3 receptor [1]; read-out: pKi (converted)): 0.316 nM
- IC50 (Histamine H3 receptor [6]): 2.51 nM

Structure (SMILES): C[C@@H]1CCCN1CCc1ccc2cc(-c3ccc(C#N)cc3)ccc2c1
- half-life [4]: 5.5 h

Structure (SMILES): CCNC(=O)[C@H]1C[C@@](F)(c2ccc(CN3CCCC3)c(F)c2)C1 [PF-03654746]
- minimal effective dose (Rattus norvegicus [7]): 1 mg/kg
- minimal effective dose (Rattus norvegicus [8]): 3.2 mg/kg
- minimal effective dose (Rattus norvegicus [9]): 0.32 mg/kg

Structure (SMILES): C[C@@H]1CCCN1CCc1ccc2cc(-n3ncccc3=O)ccc2c1
- Ki (Histamine H3 receptor [1]; read-out: Ki): 0.8 nM
- bioavailability [10]: 84%
- half-life [11]: 4.9 h

Structure (SMILES): C[C@@H]1CCCN1CCc1cc2cc(-c3ccc(C#N)cc3)ccc2o1
- bioavailability [10]: 52%
- bioavailability [12]: 74%
- bioavailability [13]: 89%

Structure (SMILES): CC1(C)CCCN(CCCOc2ccc(C3CCN(C(=O)c4ccc(CCC(=O)O)c5ccccc45)CC3)cc2)C1
- Ki (Histamine H3 receptor [1]; read-out: pKi (converted)): 50.1 nM
- Ki (Histamine H1 receptor): 12.6 nM
- ED50 (Cavia porcellus [14]): 0.6 mg/kg
- ED50 (Cavia porcellus [15]): 2.8 mg/kg

Structure (SMILES): Cc1cc2ncc(-c3ccc4cc(CCN5CCC[C@H]5C)ccc4n3)c(C)n2n1
- bioavailability [16]: 90%
- half-life [4]: 5.3 h

Structure (SMILES): CS(=O)(=O)c1ccc(C(=O)N2CCN(c3ccc(OC4CCN(C5CCC5)CC4)cc3)CC2)cc1
- Ki (Histamine H3 receptor [1]; read-out: pKi (converted)): 0.316 nM
- bioavailability [16]: > 50%
- half-life [4]: 2 h
- bioavailability [17]: 90%
- half-life [18]: 5 h
- Ki (Histamine H1 receptor): 2510 nM

Structure (SMILES): C[C@@H]1CCCN1CCc1cc2cc(-c3cn[nH]c3)ccc2o1
- Ki (Histamine H3 receptor [3]; read-out: pKi (converted)): 3.16 nM
- Ki (Histamine H3 receptor [1]; read-out: pKi (converted)): 0.501 nM
- bioavailability [16]: 26%
- half-life [4]: 2.9 h
- bioavailability [17]: 30%
- half-life [18]: 1.7 h
- bioavailability [19]: 8%
- half-life [20]: 1.8 h

Structure (SMILES): C[C@@H](NC(=O)c1ccco1)C(=O)N1CCN(CCCOc2ccc(C(=O)C3CC3)cc2)CC1
- Ki (Histamine H3 receptor [3]; read-out: pKi (converted)): 0.631 nM

Structure (SMILES): O=C(/C=C/c1ccc(C(F)(F)F)cc1)N1CCC[C@H]1CN1CCCC1
- Activity (Rattus norvegicus [21]): 339%
- Activity (Rhesus monkey): 75%

Continued, values first:

- half-life [4]: 15 h
- Vd [5]: > 100 L/kg
Structure (SMILES): c1cc(OCCCN2CCCCC2)ccc1CN1CCCCC1 [JNJ-5207852]

- Ki (Histamine H3 receptor [3]; read-out: pKi (converted)): 0.631 nM
Structure (SMILES): CNC(=O)c1ccc(Oc2ccc3c(c2)CCN(C2CCC2)CC3)nc1 [GSK189254]

- Ki (Histamine H3 receptor [1]; read-out: pKi (converted)): 1.58 nM
Structure (SMILES): C[C@H]1CC[C@H](C)N1CCCOc1ccc(-c2ccc(C(=O)N3CCOCC3)cc2)cc1 (single isomer, unassigned) [A-349,821]

- Ki (Histamine H1 receptor): 15.8 nM
Structure (SMILES): O=c1c2ccccc2c(Cc2ccc(Cl)cc2)nn1C[C@H]1CCCN1CCCCc1ccc(OCCCN2CCCCCC2)cc1 [GSK-1004723]
